Assay results: the supplement of paper PMC10627819

Columns and labels:
S. aureus DSM 20231 [1] = test: Bliss interaction score (quartile over a dose matrix) (fitness difference); higher = more antagonism (negative = synergy)
In short: (§1)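 Fitness was OD595 at entry into stationary phase divided by the plate's robust no-drug mean and capped at 1; single-drug fitness was inferred from combination data. The Bliss score is observed minus expected (product) fitness, summarised by quartiles over technical, biological and donor/recipient replicates.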

S. pneumoniae D39V [2] = test: as above
In short: as §1

B. subtilis 168 [3] = test: as above
In short: as §1

S. aureus Newman [4] = test: as above
In short: as §1

S. aureus DSM 20231 [5] = test: fitness (endpoint OD595 vs no drug) (fraction); higher = more growth
In short: (§2)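 Cultures at OD595 0.01 were dispensed into 384-well plates in TSB, LB Lennox or CY and incubated at 37 °C. Every 30 min for 14 h, OD595 was read and corrected by the first reading. Fitness is the optical density at entry into stationary phase relative to the robust mean of no-drug control wells, capped at 1.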

S. pneumoniae D39V [6] = test: as above
In short: as §2

B. subtilis 168 [7] = test: as above
In short: as §2

S. aureus Newman [8] = test: as above
In short: as §2
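Throughout, for Bliss interaction score (quartile over a dose matrix): first quartile when negative (synergy) and third quartile when positive (antagonism).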

Cc1ncc([N+](=O)[O-])n1CCO [Metronidazole] + C[n+]1ccc(-c2cc[n+](C)cc2)cc1 [Paraquat]
Conditions | Bliss interaction score
B. subtilis 168 [3] | 0.0442
S. aureus DSM 20231 [1] | 0.0478
S. aureus Newman [4] | 0.0779
S. pneumoniae D39V [2] | -0.0431

fitness
Conditions | first compound 0.625 µg/mL | first compound 1.073 µg/mL | first compound 1.25 µg/mL | first compound 2.145 µg/mL | first compound 2.5 µg/mL | first compound 4.29 µg/mL
B. subtilis 168 [7], partner 1.25 µg/mL | 0.973 | – | 0.949 | – | 0.917 | –
B. subtilis 168 [7], partner 2.5 µg/mL | 0.957 | – | 0.929 | – | 0.917 | –
B. subtilis 168 [7], partner 5 µg/mL | 0.851 | – | 0.864 | – | 0.851 | –
S. aureus DSM 20231 [5], partner 1.25 µg/mL | 0.97 | – | ≥ 1 | – | ≥ 1 | –
S. aureus DSM 20231 [5], partner 2.5 µg/mL | 0.954 | – | ≥ 1 | – | ≥ 1 | –
S. aureus DSM 20231 [5], partner 5 µg/mL | 0.955 | – | 0.978 | – | ≥ 1 | –
S. aureus Newman [8], partner 1.25 µg/mL | 0.936 | – | 0.875 | – | 0.862 | –
S. aureus Newman [8], partner 2.5 µg/mL | 0.944 | – | 0.934 | – | 0.963 | –
S. aureus Newman [8], partner 5 µg/mL | 0.888 | – | 0.932 | – | 0.973 | –
S. pneumoniae D39V [6], partner 1.5 µg/mL | – | 0.969 | – | 0.958 | – | 0.899
S. pneumoniae D39V [6], partner 3 µg/mL | – | 0.999 | – | 0.905 | – | 0.95
S. pneumoniae D39V [6], partner 6 µg/mL | – | 0.982 | – | 0.803 | – | 0.912

fitness, one replicate
Conditions | first compound 0.781 µg/mL | first compound 1.25 µg/mL | first compound 1.562 µg/mL | first compound 2.5 µg/mL | first compound 3.124 µg/mL | first compound 5 µg/mL
S. aureus Newman [8], partner 1.25 µg/mL | 0.916 | – | 0.899 | – | 0.844 | –
S. aureus Newman [8], partner 2.5 µg/mL | 0.951 | – | 0.874 | – | 0.908 | –
S. aureus Newman [8], partner 5 µg/mL | 0.919 | – | 0.907 | – | 0.984 | –
S. pneumoniae D39V [6], partner 1.5 µg/mL | – | 0.983 | – | ≥ 1 | – | ≥ 1
S. pneumoniae D39V [6], partner 3 µg/mL | – | 0.99 | – | ≥ 1 | – | ≥ 1
S. pneumoniae D39V [6], partner 6 µg/mL | – | ≥ 1 | – | ≥ 1 | – | ≥ 1

COc1cccc2c1C(=O)c1c(O)c3c(c(O)c1C2=O)C[C@@](O)(C(=O)CO)C[C@@H]3O[C@H]1C[C@H](N)[C@H](O)[C@H](C)O1 [Doxorubicin] + Cc1cc(NS(=O)(=O)c2ccc(N)cc2)no1 [Sulfamethoxazol]
Conditions | Bliss interaction score
B. subtilis 168 [3] | 0.0735
S. aureus DSM 20231 [1] | -0.0832
S. aureus Newman [4] | -0.0666
S. pneumoniae D39V [2] | 0.0685

fitness
Conditions | first compound 0.25 µg/mL | first compound 0.5 µg/mL | first compound 0.625 µg/mL | first compound 1 µg/mL | first compound 1.25 µg/mL | first compound 2.5 µg/mL
B. subtilis 168 [7], partner 1 µg/mL | – | – | 0.929 | – | 0.885 | 0.723
B. subtilis 168 [7], partner 2 µg/mL | – | – | 0.878 | – | 0.865 | 0.665
B. subtilis 168 [7], partner 4 µg/mL | – | – | ≥ 1 | – | 0.893 | 0.695
S. aureus DSM 20231 [5], partner 1 µg/mL | – | – | 0.831 | – | 0.791 | 0.737
S. aureus DSM 20231 [5], partner 2 µg/mL | – | – | 0.83 | – | 0.911 | 0.869
S. aureus DSM 20231 [5], partner 4 µg/mL | – | – | 0.812 | – | 0.874 | 0.845
S. aureus Newman [8], partner 1 µg/mL | – | – | 0.852 | – | 0.816 | 0.758
S. aureus Newman [8], partner 2 µg/mL | – | – | 0.856 | – | 0.802 | 0.765
S. aureus Newman [8], partner 4 µg/mL | – | – | 0.854 | – | 0.835 | 0.787
S. pneumoniae D39V [6], partner 1 µg/mL | 0.943 | 0.93 | – | 0.904 | – | –
S. pneumoniae D39V [6], partner 2 µg/mL | 0.949 | 0.97 | – | 0.936 | – | –
S. pneumoniae D39V [6], partner 4 µg/mL | 0.965 | 0.954 | – | 0.92 | – | –

fitness, one replicate
Conditions | first compound 0.625 µg/mL | first compound 1.25 µg/mL | first compound 2.5 µg/mL
B. subtilis 168 [7], partner 0.5 µg/mL | 0.938 | 0.883 | 0.969
S. aureus Newman [8], partner 8 µg/mL | 0.887 | 0.877 | 0.875
